In the NIST ThermoML archive (doi:10.1021/je050050p):

Experiment: xn = mol fraction of the nth substance listed
Settings: Liquid, Vibrating tube method

CN(C)C=O [dimethylformamide] + O=C=O
Settings	mass density [kg/m3]
342.93 K, 22027 kPa, x2 = 0.2876	930.22
342.93 K, 23002 kPa, x2 = 0.2876	931.1
342.93 K, 24027 kPa, x2 = 0.2876	932.06
342.93 K, 25009 kPa, x2 = 0.2876	932.97
342.94 K, 7029 kPa, x2 = 0.4502	913.19
342.94 K, 8013 kPa, x2 = 0.4502	914.64
342.94 K, 9011 kPa, x2 = 0.4502	916.09
342.94 K, 9055 kPa, x2 = 0.4068	917.41
342.94 K, 9984 kPa, x2 = 0.4068	918.63
342.94 K, 9999 kPa, x2 = 0.4502	917.51
342.94 K, 11025 kPa, x2 = 0.4502	918.98
342.94 K, 11061 kPa, x2 = 0.4068	920.01
342.94 K, 11996 kPa, x2 = 0.4068	921.23
342.94 K, 12004 kPa, x2 = 0.4502	920.36
342.94 K, 13007 kPa, x2 = 0.4502	921.76
342.94 K, 13050 kPa, x2 = 0.4068	922.57
342.94 K, 13993 kPa, x2 = 0.4502	923.08
342.94 K, 14076 kPa, x2 = 0.4068	923.82
342.94 K, 15011 kPa, x2 = 0.4068	925
342.94 K, 15025 kPa, x2 = 0.4502	924.49
342.94 K, 16021 kPa, x2 = 0.4068	926.2
342.94 K, 16028 kPa, x2 = 0.4502	925.84
342.94 K, 17002 kPa, x2 = 0.4502	927.13
342.94 K, 17029 kPa, x2 = 0.4068	927.42
342.94 K, 18001 kPa, x2 = 0.4068	928.58
342.94 K, 18035 kPa, x2 = 0.4502	928.51
342.94 K, 19023 kPa, x2 = 0.4502	929.75
342.94 K, 19026 kPa, x2 = 0.4068	929.79
342.94 K, 20023 kPa, x2 = 0.4502	931
342.94 K, 20073 kPa, x2 = 0.4068	931.01
342.94 K, 21008 kPa, x2 = 0.4068	932.09
342.94 K, 21013 kPa, x2 = 0.4502	932.27
342.94 K, 22005 kPa, x2 = 0.4068	933.21
342.94 K, 22036 kPa, x2 = 0.4502	933.51
342.94 K, 22992 kPa, x2 = 0.4068	934.31
342.94 K, 23032 kPa, x2 = 0.4502	934.76
342.94 K, 24003 kPa, x2 = 0.4502	935.89
342.94 K, 24049 kPa, x2 = 0.4068	935.49
342.94 K, 25041 kPa, x2 = 0.4502	937.14
342.94 K, 25062 kPa, x2 = 0.4068	936.61
352.81 K, 11994 kPa, x2 = 0.6235	863.79
352.81 K, 13017 kPa, x2 = 0.6235	868.11
352.81 K, 14003 kPa, x2 = 0.6235	871.85
352.81 K, 15051 kPa, x2 = 0.6235	875.54
352.81 K, 16021 kPa, x2 = 0.6235	878.85
352.81 K, 17011 kPa, x2 = 0.6235	882.12
352.81 K, 18025 kPa, x2 = 0.6235	885.31
352.81 K, 19034 kPa, x2 = 0.6235	888.42
352.81 K, 20027 kPa, x2 = 0.6235	891.37
352.81 K, 20969 kPa, x2 = 0.6235	894.02
352.81 K, 22044 kPa, x2 = 0.6235	897.02
352.81 K, 22987 kPa, x2 = 0.6235	899.54
352.81 K, 24010 kPa, x2 = 0.6235	902.21
352.81 K, 25062 kPa, x2 = 0.6235	904.9
352.86 K, 16031 kPa, x2 = 0.8091	799.4
352.86 K, 17002 kPa, x2 = 0.8091	806.61
352.86 K, 17024 kPa, x2 = 0.9311	684.5
352.86 K, 18005 kPa, x2 = 0.9311	702.67
352.86 K, 18047 kPa, x2 = 0.8091	814.2
352.86 K, 19028 kPa, x2 = 0.9311	718.94
352.86 K, 19050 kPa, x2 = 0.8091	820.88
352.86 K, 20001 kPa, x2 = 0.9311	732.41
352.86 K, 20005 kPa, x2 = 0.8091	827.13
352.86 K, 21006 kPa, x2 = 0.9311	744.94
352.86 K, 21045 kPa, x2 = 0.8091	833.27
352.86 K, 22024 kPa, x2 = 0.9311	756.39
352.86 K, 22052 kPa, x2 = 0.8091	839.08
352.86 K, 23012 kPa, x2 = 0.9311	766.47
352.86 K, 23029 kPa, x2 = 0.8091	844.25
352.86 K, 23999 kPa, x2 = 0.9311	775.83
352.86 K, 24015 kPa, x2 = 0.8091	849.31
352.86 K, 25019 kPa, x2 = 0.9311	784.81
352.86 K, 25051 kPa, x2 = 0.8091	854.32
352.87 K, 7031 kPa, x2 = 0.2876	902.49
352.87 K, 8016 kPa, x2 = 0.2876	903.63
352.87 K, 9024 kPa, x2 = 0.2876	904.79
352.87 K, 10008 kPa, x2 = 0.4268	903.63
352.87 K, 10027 kPa, x2 = 0.2876	905.96
352.87 K, 11005 kPa, x2 = 0.4268	905.13
352.87 K, 11011 kPa, x2 = 0.2876	907.05
352.87 K, 12022 kPa, x2 = 0.2876	908.2
352.87 K, 12055 kPa, x2 = 0.4268	906.66
352.87 K, 13022 kPa, x2 = 0.2876	909.31
